This is an account of results in patent US11084829B2, “Ubiquitin-specific-processing protease 7 (USP7) modulators and uses thereof” (RAPT THERAPEUTICS, INC., priority 2018, dated 2021).

One may read the IC50 as the midpoint of a concentration-inhibition curve. A higher IC50 goes with a need for much substance.

For this assay, the target named is USP7 (Homo sapiens, UniProt Q93009). Description: USP7 inhibitory potency (IC50). The class given is biochemical. How it is done: Activity for compounds described herein is provided in Table 2, wherein potency levels are provided as follows: (Potency: USP7 IC50: A<0.01 μM; B=0.01-0.1 μM; C=>0.1 μM.
Sequence of USP7 (Q93009 whole entry): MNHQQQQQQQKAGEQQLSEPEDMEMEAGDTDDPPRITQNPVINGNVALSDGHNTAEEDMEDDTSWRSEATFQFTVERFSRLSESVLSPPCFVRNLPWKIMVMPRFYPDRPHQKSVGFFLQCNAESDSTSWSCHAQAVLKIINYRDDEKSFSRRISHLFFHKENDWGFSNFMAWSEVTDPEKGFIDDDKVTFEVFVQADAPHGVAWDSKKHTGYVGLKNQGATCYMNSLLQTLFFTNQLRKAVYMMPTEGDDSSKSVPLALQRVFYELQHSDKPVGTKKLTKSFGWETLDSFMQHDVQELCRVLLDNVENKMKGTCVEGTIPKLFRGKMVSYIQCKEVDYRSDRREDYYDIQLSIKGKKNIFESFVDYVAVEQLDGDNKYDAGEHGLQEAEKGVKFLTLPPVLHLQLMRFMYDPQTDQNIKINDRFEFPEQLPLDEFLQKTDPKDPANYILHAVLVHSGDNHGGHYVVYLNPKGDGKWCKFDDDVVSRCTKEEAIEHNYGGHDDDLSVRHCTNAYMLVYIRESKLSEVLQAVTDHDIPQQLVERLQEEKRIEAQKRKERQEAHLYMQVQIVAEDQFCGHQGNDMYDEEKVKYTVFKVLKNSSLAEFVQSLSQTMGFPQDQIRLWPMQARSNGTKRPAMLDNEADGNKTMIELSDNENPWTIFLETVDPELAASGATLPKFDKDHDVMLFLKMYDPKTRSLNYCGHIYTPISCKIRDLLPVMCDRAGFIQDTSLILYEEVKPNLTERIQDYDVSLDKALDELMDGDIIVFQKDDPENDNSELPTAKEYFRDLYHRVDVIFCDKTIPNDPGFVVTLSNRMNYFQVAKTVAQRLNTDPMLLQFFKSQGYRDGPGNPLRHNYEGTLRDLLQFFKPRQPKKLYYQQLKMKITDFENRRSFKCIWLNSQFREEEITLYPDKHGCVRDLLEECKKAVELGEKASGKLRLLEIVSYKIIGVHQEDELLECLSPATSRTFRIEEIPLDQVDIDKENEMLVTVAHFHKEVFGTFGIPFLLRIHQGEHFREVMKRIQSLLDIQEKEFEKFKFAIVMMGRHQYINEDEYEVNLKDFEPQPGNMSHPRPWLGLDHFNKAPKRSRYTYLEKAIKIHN

`Cc1cc(Cl)cc(-c2ccnc3cc(CN4C(=O)CCC4=O)sc23)c1CN1C[C@H](C)N[C@@H](C)C1` [Example 25, 1-((7-(5-chloro-2-(((3 S,5 S)-3,5-dimethylpiperazin-1-yl)methyl)-3-methylphenyl)thieno[3,2-b]pyridin-2-yl)methyl)pyrrolidine-2,5-dione] showed an IC50 of less than 10 nM.
On to `Cc1cc(Cl)cc(-c2ncnc3cc(CN4C(=O)c5ccccc5C4=O)sc23)c1CC1CNCCO1` (centres unmarked) [Example 179, 2-((4-(5-chloro-3-methyl-2-(morpholin-2-ylmethyl)phenyl)thieno[3,2-d]pyrimidin-6-yl)methyl)isoindoline-1,3-dione], for which the IC50 was less than 10 nM.
The value for `CN1CCC(=O)N(Cc2cc3nccc(-c4cc(Cl)cc(Cl)c4CC4CNCC(C)(C)O4)c3s2)C1=O` (centres unmarked) [Example 135, 3-((7-(3,5-dichloro-2-((6,6-dimethylmorpholin-2-yl)methyl)phenyl)thieno[3,2-b]pyridin-2-yl)methyl)-1-methyldihydropyrimidine-2,4(1H,3H)-dione] was less than 10 nM; that for “3-((7-(3,5-dichloro-2-(((2S,6S)-2,6-dimethylpiperazin-1-yl)methyl)phenyl)thieno[3,2-b]pyridin-2-yl)methyl)-1-methylpyrimidine-2,4(1H,3H)-dione [Example 95]” was less than 10 nM; that for `C[C@H]1CNC[C@H](C)N1Cc1c(Cl)cc(Cl)cc1-c1ncnc2cc(CN3C(=O)CN(C)C3=O)sc12` [Example 94, 3-((4-(3,5-dichloro-2-(((2S,6S)-2,6-dimethylpiperazin-1-yl)methyl)phenyl)thieno[3,2-d]pyrimidin-6-yl)methyl)-1-methylimidazolidine-2,4-dione] was less than 10 nM.
The compound `Cc1cc(Cl)cc(-c2ccnc3cc(CN4C(=O)C5CCCN5C4=O)sc23)c1CC1CNCCO1` (centres unmarked) [Example 116, 2-((7-(5-chloro-3-methyl-2-(morpholin-2-ylmethyl)phenyl)thieno[3,2-b]pyridin-2-yl)methyl)tetrahydro-1H-pyrrolo[1,2-c]imidazole-1,3(2H)-dione] showed an IC50 of less than 10 nM.
The value for `Cc1cc(Cl)cc(-c2ccnc3cc(CN4C(=O)CCC4=O)sc23)c1CC1CNCCO1` (centres unmarked) [Example 96, 1-((7-(5-chloro-3-methyl-2-(morpholin-2-ylmethyl)phenyl)thieno[3,2-b]pyridin-2-yl)methyl)pyrrolidine-2,5-dione] was 10 to 100 nM; that for `Cc1cc(Cl)cc(-c2ccnc3cc(CN4C(=O)C5CC5C4=O)sc23)c1CC1CNCC2(COC2)O1` (centres unmarked) [Example 138, 3-((7-(2-((2,5-dioxa-8-azaspiro[3.5]nonan-6-yl)methyl)-5-chloro-3-methylphenyl)thieno[3,2-b]pyridin-2-yl)methyl)-3-azabicyclo[3.1.0]hexane-2,4-dione] was less than 10 nM; that for `Cc1cc(Cl)cc(-c2ncnc3cc(CN4C(=O)C5CCC5C4=O)sc23)c1CC1CNCCO1` (centres unmarked) [Example 170, 3-((4-(5-chloro-3-methyl-2-(morpholin-2-ylmethyl)phenyl)thieno[3,2-d]pyrimidin-6-yl)methyl)-3-azabicyclo[3.2.0]heptane-2,4-dione] was less than 10 nM.
In the case of `Cc1cc(Cl)cc(-c2ccnc3cc(CN4C(=O)CCC4=O)sc23)c1CN1C[C@@H](C)N[C@@H](C)C1` [Example 19, 1-((7-(5-chloro-2-(((3 S,5R)-3,5-dimethylpiperazin-1-yl)methyl)-3-methylphenyl)thieno[3,2-b]pyridin-2-yl)methyl)pyrrolidine-2,5-dione], the IC50 is 10 to 100 nM.
The value for `Cc1cc(Cl)cc(-c2ccnc3cc(CN4C(=O)CN(C)C4=O)sc23)c1C[C@@H]1CNCCO1` [Example 126, (R)-3-((7-(5-chloro-3-methyl-2-(morpholin-2-ylmethyl)phenyl)thieno[3,2-b]pyridin-2-yl)methyl)-1-methylimidazolidine-2,4-dione] was less than 10 nM; that for `Cc1cc(Cl)cc(-c2ncnc3cc(CN4C(=O)CCN(CC(F)(F)F)C4=O)sc23)c1CN1[C@@H](C)CNC[C@@H]1C` [Example 260, 3-((4-(5-chloro-2-(((2S,6S)-2,6-dimethylpiperazin-1-yl)methyl)-3-methylphenyl)thieno[3,2-d]pyrimidin-6-yl)methyl)-1-(2,2,2-trifluoroethyl)dihydropyrimidine-2,4(1H,3H)-dione] was less than 10 nM; that for `Cn1ccc(=O)n(Cc2cc3ncnc(-c4cc(Cl)cc(Cl)c4CC4CNCC(C)(C)O4)c3s2)c1=O` (centres unmarked) [Example 252, 3-((4-(3,5-dichloro-2-((6,6-dimethylmorpholin-2-yl)methyl)phenyl)thieno[3,2-d]pyrimidin-6-yl)methyl)-1-methylpyrimidine-2,4(1H,3H)-dione] was less than 10 nM.
For the compound `Cc1cc(Cl)cc(-c2ccnc3cc(CN4C(=O)C5CC5C4=O)sc23)c1CN1CCCNCC1C` (centres unmarked) [Example 38, 3-((7-(5-chloro-3-methyl-2-((2-methyl-1,4-diazepan-1-yl)methyl)phenyl)thieno[3,2-b]pyridin-2-yl)methyl)-3-azabicyclo[3.1.0]hexane-2,4-dione], the IC50 was less than 10 nM.
With `Cc1cc(Cl)cc(-c2ncnc3cc(CN4C(=O)[C@H]5CCCN5C4=O)sc23)c1CN1[C@@H](C)CNC[C@@H]1C` [Example 89, (R)-2-((4-(5-chloro-2-(((2S,6S)-2,6-dimethylpiperazin-1-yl)methyl)-3-methylphenyl)thieno[3,2-d]pyrimidin-6-yl)methyl)tetrahydro-1H-pyrrolo[1,2-c]imidazole-1,3(2H)-dione] the figure was less than 10 nM; with `Cc1cc(Cl)cc(-c2ccnc3cc(CN4C(=O)CCC4=O)sc23)c1CN1CCNC[C@H]1C` [Example 7, (R)-1-((7-(5-chloro-3-methyl-2-((2-methylpiperazin-1-yl)methyl)phenyl)thieno[3,2-b]pyridin-2-yl)methyl)pyrrolidine-2,5-dione], 10 to 100 nM.
With `Cc1cc(Cl)cc(-c2ccnc3cc(CN4C(=O)CCC4=O)sc23)c1CN1CCNCC1(C)C` [Example 12, 1-((7-(5-chloro-2-((2,2-dimethylpiperazin-1-yl)methyl)-3-methylphenyl)thieno[3,2-b]pyridin-2-yl)methyl)pyrrolidine-2,5-dione] the figure was less than 10 nM.
For `Cc1cc(Cl)cc(-c2ccnc3cc(CN4C(=O)C5CC5C4=O)sc23)c1CC1CNCCOC1` (centres unmarked) [Example 112, 3-((7-(2-((1,4-oxazepan-6-yl)methyl)-5-chloro-3-methylphenyl)thieno[3,2-b]pyridin-2-yl)methyl)-3-azabicyclo[3.1.0]hexane-2,4-dione], the IC50 was less than 10 nM.
With `Cc1cc(Cl)cc(-c2ccnc3cc(CN4C(=O)CCC4=O)sc23)c1CN1[C@@H](C)CN(C(C)C)C[C@@H]1C` [Example 30, 1-((7-(5-chloro-2-(((2S,6S)-4-isopropyl-2,6-dimethylpiperazin-1-yl)methyl)-3-methylphenyl)thieno[3,2-b]pyridin-2-yl)methyl)pyrrolidine-2,5-dione] the figure was less than 10 nM; with `Cc1cc(Cl)cc(-c2ncnc3cc(CN4C(=O)CCC45CC5)sc23)c1CC1CNCC(C)(C)O1` (centres unmarked) [Example 203, 4-((4-(5-chloro-2-((6,6-dimethylmorpholin-2-yl)methyl)-3-methylphenyl)thieno[3,2-d]pyrimidin-6-yl)methyl)-4-azaspiro[2.4]heptan-5-one], 10 to 100 nM.
